Measured values reported in US5416070A, “Composition for macrophage activation” (ImmunoTherapeutics, Inc., priority 1990, dated 1995).

Columns and labels:
Assay type in all cases: cell-based
[1] = test system: Human peripheral blood mononuclear cells; assay: Activation of monocytes in vitro measured by in vitro tumor cell cytotoxicity
Experimental: Human peripheral blood mononuclear cells were isolated by density gradient centrifugation on 46% Percoll. 1×10^5 of the mononuclear cells were plated onto Falcon microliter plates and allowed to adhere for two hours. The non-adherent cells were removed and fresh media added. The cells were allowed to incubate for 24 hours after which various concentrations of the drug either alone or incorporated in liposomes was added. After 24 hours, the plates were washed and 1×10^4 I^125 labelled target cells were added. Following an additional 72 hours of coincubation, the plates were washed and the residual radioactivity determined. The specific cytotoxicity was calculated from the formula: [formula] The results of cytotoxicity assay of various compounds alone or incorporated in liposomes at various concentrations is given in Table 6.

[2] = test system: human peripheral blood monocytes; assay: Activation of monocytes in vitro measured by production of tumor necrosis factor (ELISA); conditions: for TNF (pg/ml) at given Concentration of Compound: 24 Hours
Experimental: (§1) Human peripheral blood monocytes were isolated by density gradient centrifugation as noted in Example 13. The cell number was adjusted to 5×10^5 cells per ml in RPM 1640 media containing 5% human AB negative serum. One ml containing 5×10^5 cells were placed in individual wells of a 24-well Plastek tissue culture plate. Various drugs in a volume of 0.5 ml were added at time zero. The cells were incubated at 37° C. in a 5% CO2 atmosphere. Aliquots (0.1 ml) of the supernatant were removed at 24 hours and frozen at -80° C. These samples were subsequently assayed for tumor necrosis factor (TNF) activity using a commercially available ELISA Assay from T-Cell Sciences (Cambridge, Mass.).
Human peripheral blood monocytes were isolated by density gradient centrifugation as described in Example 13. The cells were plated in 24-well microliter plates as described in Example 33. The compounds Were prepared in liposomes as described in Example 10, and assayed for TNF production, as described in Example 33. The results are set forth in Table 5, and show significant levels of TNF compared to controls.
as §1, with “of” for “of a”, “zero. The compounds were also formulated in liposomes as described in Example 10, and added in a volume of 0.5 ml to individual wells of a 24-well Plastek tissue culture plate.” for “zero.”, “-20°” for “-80°”, “TNF as described in Example 33 and Interleukin-1-beta (IL-1β)” for “tumor necrosis factor (TNF) activity”, “kit” for “Assay”, “Cistron (Pine Brook, N.J.).” for “T-Cell Sciences (Cambridge, Mass.).”

[3] = test system: human peripheral blood monocytes; assay: Activation of monocytes in vitro measured by production of Interleukin-1-beta (ELISA); conditions: 24 Hours
Experimental: as §1, with “of” for “of a”, “zero. The compounds were also formulated in liposomes as described in Example 10, and added in a volume of 0.5 ml to individual wells of a 24-well Plastek tissue culture plate.” for “zero.”, “-20°” for “-80°”, “TNF as described in Example 33 and Interleukin-1-beta (IL-1β)” for “tumor necrosis factor (TNF) activity”, “kit” for “Assay”, “Cistron (Pine Brook, N.J.).” for “T-Cell Sciences (Cambridge, Mass.).”

[4] = PC/PG liposomes (7:3), 0.1 μg/ml
[5] = PC/PG liposomes (7:3), 1.0 μg/ml
[6] = PC/PG liposomes (7:3), 10.0 μg/ml
[7] = no formulation given (drug alone), 0.1 μg/ml
[8] = no formulation given (drug alone), 1.0 μg/ml
[9] = no formulation given (drug alone), 10.0 μg/ml
[10] = Experiment 3, free drug in saline 0.1 μg/ml, 24 hours
[11] = Experiment 3, free drug in saline 1.0 μg/ml, 24 hours
[12] = Experiment 3, free drug in saline 10.0 μg/ml, 24 hours
[13] = Table 7, Experiment 1, 0.01 μg/ml
[14] = Table 7, Experiment 1, 0.1 μg/ml
[15] = Table 7, Experiment 1, 1.0 μg/ml
[16] = Table 7, Experiment 1, 10.0 μg/ml
[17] = Table 8, Experiment 1, 0.01 μg/ml
[18] = Table 8, Experiment 1, 0.1 μg/ml
[19] = Table 8, Experiment 1, 1.0 μg/ml
[20] = Table 8, Experiment 1, 10.0 μg/ml
[21] = Table 9, Experiment 2, 0.1 μg/ml
[22] = Table 9, Experiment 2, 1.0 μg/ml
[23] = Table 9, Experiment 2, 10.0 μg/ml

Structure (SMILES): CCCCCCCCCCCCCCCC(=O)OCC(COC(=O)CCCCCCCCCCCCCCC)NC(=O)C(C)NC(=O)CCC(NC(=O)C(C)NC(=O)C(C)OC1C(NC(C)=O)C(O)OC(CO)C1OC1OC(CO)C(O)C(O)C1NC(C)=O)C(N)=O [Compound IA, 4-O-[2-acetamido-2-deoxy-β-D-glucopyranosyl]-2-acetamido-2-deoxy-3-O-[D-2-propanoyl-L-alanyl-D-isoglutaminyl-L-alanyl-2-(1,3-dipalmitoyloxy)propylamide]-D-glucopyranose]
- Cytotoxicity [1, 4]: 7.0%
- Cytotoxicity [1, 5]: 7.0%
- Cytotoxicity [1, 6]: 6.0%
- Cytotoxicity ([1]; PC/PS liposomes (7:3), 0.1 μg/ml): 8.0%
- Cytotoxicity ([1]; PC/PS liposomes (7:3), 1.0 μg/ml): 5.0%
- Cytotoxicity ([1]; PC/PS liposomes (7:3), 10.0 μg/ml): 19.0%
- Cytotoxicity [1, 7]: 1.0%
- Cytotoxicity [1, 8]: 4.0%
- Cytotoxicity [1, 9]: 3.0%
- TNF Level [2, 10]: 280 pg/mL
- TNF Level [2, 11]: 1000 pg/mL
- TNF Level [2, 12]: 1680 pg/mL
- TNF Level ([2]; Table 5, compound incorporated in liposomes, 0.1 μg/ml): 430 pg/mL
- TNF Level ([2]; Table 5, compound incorporated in liposomes, 1.0 μg/ml): 800 pg/mL
- TNF Level ([2]; Table 5, compound incorporated in liposomes, 10.0 μg/ml): 750 pg/mL

Structure (SMILES): CCCCCCCCCCCCCCCC(=O)OCC(COC(=O)CCCCCCCCCCCCCCC)NC(=O)C(C)NC(=O)CCC(NC(=O)C(C)NC(=O)C(C)OC1C(NC(C)=O)C(O)OC(CO)C1OC1OC(CO)C(O)C(O)C1NC(C)=O)C(N)=O [Compound IB, GlcNAcMurNAc-L-Ala-D-isoGln-D-Ala-NHDPG]
- TNF Level [2, 10]: 180 pg/mL
- TNF Level [2, 11]: 350 pg/mL
- TNF Level [2, 12]: 1980 pg/mL

Structure (SMILES): CCCCCCCCCCCCCCCC(=O)OCC(COC(=O)CCCCCCCCCCCCCCC)NC(=O)C(C)NC(=O)CCC(NC(=O)C(C)NC(=O)C(C)OC1C(NC(C)=O)C(O)OC(CO)C1OC1OC(CO)C(O)C(O)C1NC(C)=O)C(N)=O [Compound IC, GlcNAcMurNAc-D-Ala-D-isoGln-D-Ala-NHDPG]
- Cytotoxicity [1, 4]: 10.0%
- Cytotoxicity [1, 5]: 4.0%
- Cytotoxicity [1, 6]: 12.0%
- Cytotoxicity [1, 7]: 5.0%
- Cytotoxicity [1, 8]: 16.0%
- Cytotoxicity [1, 9]: 15.0%
- TNF Level [2, 10]: 280 pg/mL
- TNF Level [2, 11]: 300 pg/mL
- TNF Level [2, 12]: 250 pg/mL

Structure (SMILES): CCCCCCCCCCCCCCCC(=O)OCC(COC(=O)C(C)NC(=O)CCC(NC(=O)C(C)NC(=O)C(C)OC1C(NC(C)=O)C(O)OC(CO)C1OC1OC(CO)C(O)C(O)C1NC(C)=O)C(N)=O)OC(=O)CCCCCCCCCCCCCCC [Compound IIB, 4-O-[2-acetamido-2-deoxy-β-D-glucopyranosyl]-2-acetamido-2-deoxy-3-O-[D-2-propanoyl-L-alanyl-D-isoglutaminyl-D-alanyl-1,2-dipalmitoyl-sn-glycerol]-D-glucopyranose]
- TNF Level [2, 10]: 250 pg/mL
- TNF Level [2, 11]: 500 pg/mL
- TNF Level [2, 12]: 1600 pg/mL

Structure (SMILES): CCCCCCCCCCCCCCCC(=O)OCC(COC(=O)C(C)NC(=O)CCC(NC(=O)C(C)NC(=O)C(C)OC1C(NC(C)=O)C(O)OC(CO)C1OC1OC(CO)C(O)C(O)C1NC(C)=O)C(N)=O)OC(=O)CCCCCCCCCCCCCCC [Compound IIC, GlcNAcMurNAc-D-Ala-D-isoGln-D-Ala-DPG]
- TNF Level ([2]; Experiment 4, free drug in saline 0.1 μg/ml, 24 hours): 40 pg/mL
- TNF Level ([2]; Experiment 4, free drug in saline 1.0 μg/ml, 24 hours): 110 pg/mL
- TNF Level ([2]; Experiment 4, free drug in saline 10.0 μg/ml, 24 hours): 450 pg/mL

Structure (SMILES): CC(=O)NC1C(OC2C(CO)OC(O)C(NC(C)=O)C2OC(C)C(=O)NC(C(=O)NC(CCC(=O)O)C(N)=O)C(C)O)OC(CO)C(O)C1O [GlcNAcMurNAc-L-Thr-D-isoGln]
- TNF (pg/ml) at given Concentration of Compound [2, 13]: 200 pg/mL
- TNF (pg/ml) at given Concentration of Compound [2, 14]: 440 pg/mL
- TNF (pg/ml) at given Concentration of Compound [2, 15]: 1050 pg/mL
- TNF (pg/ml) at given Concentration of Compound [2, 16]: 1050 pg/mL
- IL-1-beta (pg/ml) at given Concentration of Compound [3, 17]: 50 pg/mL
- IL-1-beta (pg/ml) at given Concentration of Compound [3, 18]: 70 pg/mL
- IL-1-beta (pg/ml) at given Concentration of Compound [3, 19]: 230 pg/mL
- IL-1-beta (pg/ml) at given Concentration of Compound [3, 20]: 630 pg/mL

Structure (SMILES): CCCCCCCCCCCCCCCC(=O)OCC(COC(=O)CCCCCCCCCCCCCCC)NC(=O)C(C)NC(=O)CCC(NC(=O)C(NC(=O)C(C)OC1C(NC(C)=O)C(O)OC(CO)C1OC1OC(CO)C(O)C(O)C1NC(C)=O)C(C)O)C(N)=O [ID, GlcNAcMurNAc-F-Thr-D-isoGln-F-Ala-NHDPG]
- TNF (pg/ml) at given Concentration of Compound [2, 14]: 0 pg/mL
- TNF (pg/ml) at given Concentration of Compound [2, 15]: 250 pg/mL
- TNF (pg/ml) at given Concentration of Compound [2, 16]: 1060 pg/mL
- IL-1-beta (pg/ml) at given Concentration of Compound [3, 17]: 10 pg/mL
- IL-1-beta (pg/ml) at given Concentration of Compound [3, 18]: 16 pg/mL
- IL-1-beta (pg/ml) at given Concentration of Compound [3, 19]: 8 pg/mL
- IL-1-beta (pg/ml) at given Concentration of Compound [3, 20]: 90 pg/mL

Structure (SMILES): CCCCCCCCCCCCCCCC(=O)OCC(COC(=O)C(C)NC(=O)CCC(NC(=O)C(NC(=O)C(C)OC1C(NC(C)=O)C(O)OC(CO)C1OC1OC(CO)C(O)C(O)C1NC(C)=O)C(C)O)C(N)=O)OC(=O)CCCCCCCCCCCCCCC [IID, GlcNAcMurNAc-F-Thr-D-isoGln-F-Ala-DPG]
- TNF (pg/ml) at given Concentration of Compound [2, 13]: 70 pg/mL
- TNF (pg/ml) at given Concentration of Compound [2, 14]: 320 pg/mL
- TNF (pg/ml) at given Concentration of Compound [2, 15]: 1080 pg/mL
- TNF (pg/ml) at given Concentration of Compound [2, 16]: 2150 pg/mL
- IL-1-beta (pg/ml) at given Concentration of Compound [3, 17]: 70 pg/mL
- IL-1-beta (pg/ml) at given Concentration of Compound [3, 18]: 14 pg/mL
- IL-1-beta (pg/ml) at given Concentration of Compound [3, 19]: 170 pg/mL
- IL-1-beta (pg/ml) at given Concentration of Compound [3, 20]: 690 pg/mL

Structure (SMILES): CCCCCCCCCCCCCCCC(=O)OCC(COC(=O)C(C)NC(=O)CCC(NC(=O)C(CO)NC(=O)C(C)OC1C(NC(C)=O)C(O)OC(CO)C1OC1OC(CO)C(O)C(O)C1NC(C)=O)C(N)=O)OC(=O)CCCCCCCCCCCCCCC [IIE, GlcNAcMurNAc-F-Ser-D-isoGln-F-Ala-DPG]
- TNF (pg/ml) at given Concentration of Compound [2, 21]: 150 pg/mL
- TNF (pg/ml) at given Concentration of Compound [2, 22]: 800 pg/mL
- TNF (pg/ml) at given Concentration of Compound [2, 23]: 1500 pg/mL

Structure (SMILES): CCCCCCCCCCCCCCCC(=O)OCC(COC(=O)C(C)NC(=O)CCC(NC(=O)C(NC(=O)C(C)OC1C(NC(C)=O)C(O)OC(CO)C1OC1OC(CO)C(O)C(O)C1NC(C)=O)C(C)C)C(N)=O)OC(=O)CCCCCCCCCCCCCCC [IIF, GlcNAcMurNAc-F-Val-D-isoGln-F-Ala-DpG]
- TNF (pg/ml) at given Concentration of Compound [2, 13]: 510 pg/mL
- TNF (pg/ml) at given Concentration of Compound [2, 14]: 440 pg/mL
- TNF (pg/ml) at given Concentration of Compound [2, 15]: 480 pg/mL
- TNF (pg/ml) at given Concentration of Compound [2, 16]: 400 pg/mL
- IL-1-beta (pg/ml) at given Concentration of Compound [3, 17]: 220 pg/mL
- IL-1-beta (pg/ml) at given Concentration of Compound [3, 18]: 212 pg/mL
- IL-1-beta (pg/ml) at given Concentration of Compound [3, 19]: 260 pg/mL
- IL-1-beta (pg/ml) at given Concentration of Compound [3, 20]: 260 pg/mL

Structure (SMILES): CCCCCCCCCCCCCCCC(=O)OCC(COC(=O)C(NC(=O)CCC(NC(=O)C(C)NC(=O)C(C)OC1C(NC(C)=O)C(O)OC(CO)C1OC1OC(CO)C(O)C(O)C1NC(C)=O)C(N)=O)C(C)C)OC(=O)CCCCCCCCCCCCCCC [IIG, GlcNAcMurNAc-F-Ala-D-isoGln-F-Val-DpG]
- TNF (pg/ml) at given Concentration of Compound [2, 21]: 1150 pg/mL
- TNF (pg/ml) at given Concentration of Compound [2, 22]: 1500 pg/mL
- TNF (pg/ml) at given Concentration of Compound [2, 23]: 1400 pg/mL
